This note sets out measurements from PMC10877733, “Discovery and Characterization of VU0542270, the First Selective Inhibitor of Vascular Kir6.1/SUR2B KATP Channels” (Molecular Pharmacology, 2024).

What is called Kp is the ratio of the level in a tissue or fluid to that in plasma or blood.

Structures are written as SMILES. “And” between values parts separate entries of the source, which are not always exact repeats. Equal entries are not always repeated.

The target in data set [1] is T1, Kir6.1/SUR2B (Homo sapiens, UniProt O60706).
T1 construct: expressed in transfected cells; also transiently transfected HEK293T
T1 sequence (O60706 1-1549 isoform O60706-2, species assumed): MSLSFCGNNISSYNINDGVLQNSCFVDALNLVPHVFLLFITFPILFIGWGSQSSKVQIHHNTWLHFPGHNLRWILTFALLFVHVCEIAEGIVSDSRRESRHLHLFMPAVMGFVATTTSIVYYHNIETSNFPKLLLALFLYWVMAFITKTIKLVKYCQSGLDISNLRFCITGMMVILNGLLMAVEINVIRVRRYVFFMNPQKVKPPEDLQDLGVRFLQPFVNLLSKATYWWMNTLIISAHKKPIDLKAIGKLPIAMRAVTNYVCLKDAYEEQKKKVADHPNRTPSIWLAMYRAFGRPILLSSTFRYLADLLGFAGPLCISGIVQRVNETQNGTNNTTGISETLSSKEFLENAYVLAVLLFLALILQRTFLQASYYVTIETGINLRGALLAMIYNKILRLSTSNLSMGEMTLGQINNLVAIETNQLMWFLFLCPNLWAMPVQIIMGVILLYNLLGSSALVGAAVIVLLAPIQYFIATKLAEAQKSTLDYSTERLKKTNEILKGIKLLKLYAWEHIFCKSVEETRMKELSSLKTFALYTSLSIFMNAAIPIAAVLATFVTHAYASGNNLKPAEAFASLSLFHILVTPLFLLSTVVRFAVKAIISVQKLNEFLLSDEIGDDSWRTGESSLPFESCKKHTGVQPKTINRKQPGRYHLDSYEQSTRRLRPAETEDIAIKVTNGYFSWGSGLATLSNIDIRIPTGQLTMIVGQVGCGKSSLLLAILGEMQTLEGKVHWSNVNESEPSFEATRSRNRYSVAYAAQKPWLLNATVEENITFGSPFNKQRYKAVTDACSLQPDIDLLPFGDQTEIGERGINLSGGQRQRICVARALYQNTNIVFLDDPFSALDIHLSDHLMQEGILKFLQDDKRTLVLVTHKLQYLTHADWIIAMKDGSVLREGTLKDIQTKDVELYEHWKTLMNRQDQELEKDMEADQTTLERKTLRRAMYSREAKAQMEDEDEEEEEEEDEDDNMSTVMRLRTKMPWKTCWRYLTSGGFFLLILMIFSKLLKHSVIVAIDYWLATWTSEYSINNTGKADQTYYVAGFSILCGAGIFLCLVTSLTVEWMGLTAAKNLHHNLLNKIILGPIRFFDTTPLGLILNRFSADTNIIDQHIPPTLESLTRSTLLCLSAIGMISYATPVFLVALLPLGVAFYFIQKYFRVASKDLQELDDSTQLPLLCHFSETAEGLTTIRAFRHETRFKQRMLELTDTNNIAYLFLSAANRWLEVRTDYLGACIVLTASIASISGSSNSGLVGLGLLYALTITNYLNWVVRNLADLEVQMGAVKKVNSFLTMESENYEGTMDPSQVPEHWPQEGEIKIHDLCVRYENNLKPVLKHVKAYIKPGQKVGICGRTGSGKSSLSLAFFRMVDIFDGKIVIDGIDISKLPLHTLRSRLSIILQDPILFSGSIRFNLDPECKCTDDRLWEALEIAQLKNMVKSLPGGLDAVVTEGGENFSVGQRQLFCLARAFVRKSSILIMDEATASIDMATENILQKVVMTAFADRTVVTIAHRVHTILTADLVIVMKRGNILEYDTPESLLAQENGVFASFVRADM
T1 sequence (Q15842 whole entry partner, species assumed): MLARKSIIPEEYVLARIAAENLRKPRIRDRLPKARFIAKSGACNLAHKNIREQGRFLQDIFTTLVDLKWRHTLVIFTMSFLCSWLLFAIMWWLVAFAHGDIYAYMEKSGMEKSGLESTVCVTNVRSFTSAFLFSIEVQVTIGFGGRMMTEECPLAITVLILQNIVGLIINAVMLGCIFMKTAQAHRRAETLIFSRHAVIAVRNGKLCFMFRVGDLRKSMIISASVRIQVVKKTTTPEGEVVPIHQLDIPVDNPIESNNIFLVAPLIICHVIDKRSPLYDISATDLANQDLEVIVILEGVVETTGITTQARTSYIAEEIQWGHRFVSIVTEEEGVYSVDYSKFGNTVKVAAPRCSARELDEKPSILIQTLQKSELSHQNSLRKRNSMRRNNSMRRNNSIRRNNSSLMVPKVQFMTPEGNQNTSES
The data set is described as follows: Whole-cell patch clamp electrophysiology, T-Rex-HEK293-Kir6.1/SUR2B cells. It counts as cell-based. The method, then: T-Rex-HEK293-Kir6.1/SUR2B cells were plated into tissue culture-treated 35-mm polystyrene dishes at a density of 250,000 cells and cultured in a 5% CO2 incubator at 37°C. Whole-cell patch-clamp recordings were performed 48 hours after plating. Cells were dissociated on the experiment day and plated on poly-L-lysine–coated coverslips and allowed to recover for at least 1 hour in a 37°C/5% CO2 incubator before beginning experiments. Patch electrodes (2 to 3 MΩ) were filled with an intracellular solution containing 130 mM KCl, 2 mM MgCl2, 1 mM EGTA, 20 mM HEPES-free acid, and 2 mM Na2ATP (Roche Diagnostics, Risch-Rotkreuz, Switzerland), pH 7.3, titrated with KOH, and osmolarity 275 mOsmol/kg of water (adjusted with sucrose). The standard bath solution contained 135 mM NaCl, 5 mM KCl, 2 mM CaCl2, 1 mM MgCl2, 5 mM glucose, and 10 mM HEPES-free acid, pH 7.4, titrated with NaOH. Serial dilutions of compounds were first made in DMSO and then in bath solution so that the final DMSO concentration was 0.1% v/v across all test doses. Macroscopic currents were recorded under voltage-clamp conditions using an Axopatch 200B Amplifier (Molecular Devices, Sunnyvale, CA). Data were collected at 5 kHz and filtered at 1 kHz. […] IC50 values were determined by fitting the Hill equation to CRCs using variable-slope nonlinear regression analyses. […]
(Patch clamp records ionic current or voltage across a cell membrane.)

Data set [2] can be described thus: Brain:plasma distribution in rat. Particulars: male, Sprague Dawley, brain and plasma, IV 0.2 mg/kg, 15 minutes postdose. It counts as in vivo. The method, then: VU0542270 was formulated as a solution in ethanol, PEG400, and saline (1:4:5 v/v, respectively) and administered to male Sprague Dawley rats (n = 1) intravenously at 0.2 mg/kg. At 15 minutes postdose, a blood sample was collected terminally into chilled K2EDTA anticoagulant-fortified tubes and immediately placed on wet ice. The blood sample was then centrifuged (1700 rcf, 5 minutes, 4°C) to obtain a plasma sample. At the same postadministration time point(s), a whole-brain sample was obtained by rapid dissection, rinsing with PBS, and immediate freezing in individual tissue collection boxes (dry ice). All brain and plasma samples were stored at −80°C until analysis by LC-MS/MS. In vivo brain:plasma distribution partition coefficient of VU0542270 was determined from the observed animal brain versus plasma concentrations.
Plasma samples from the in-life phases of the studies were thawed at ambient temperature (benchtop), and then aliquots (20 µL per sample) were transferred to a 96-shallow-well (V-bottom) plate. […]
Prepared samples were injected (10 µL each) onto an AB Sciex triple quad-4500 mass spectrometer system with an Agilent 1290 Infinity Binary Pump and multisampler. […] Quantitation of VU0542270 was performed via AB Sciex Analyst software using the raw analyte:IS peak area ratios. […]

Consider `Cc1nc(-c2cccs2)sc1CNC(=O)Nc1cccs1` [VU0542270], for which the IC50 in data set [1] (1 µM pinacidil-activated, normalized to maximal inhibition by 10 µM VU0542270, read-out: Kir6.1/SUR2B IC50, whole-cell current) was ~0.279 µM and 0.278 µM. For the same compound, the “inhibition of KATP current” value in data set [1] (10 µM compound in continued presence of 1 µM pinacidil) is “complete inhibition”. The Kp at 0.25 h in data set [2] is 0.11.
